Data reported in ChEMBL document CHEMBL3714755, “Pyridinyl amides as P2X3 and P2X2/3 inhibitors” (2014).
Active and inactive are the calls of the source. The rule behind the calls is not given here.

Target: P2X2/P2X3 heterotrimeric receptor (Homo sapiens) (UniProt Q9UBL9+P56373)
Test: Antagonist activity against human P2X2/3 receptor expressed in CHOK1 cells assessed as inhibition of alpha,beta-meATP-induced calcium response incubated for 20 mins by Fluo-3AM dye based FLIPR assay
Assay type: functional, cell-based
Conditions: CHO-K1

inhibition, active:
COCC(C)NC(=O)c1cc(NC(=O)c2ccccc2)cc(-c2ccc(C)cc2)c1 (configuration not stated)
CCN(C(=O)COC)c1cc(C(=O)NC(C)c2cnccn2)cc(-c2ccc(C)cc2)c1 (configuration not stated)
CCC(C)C(=O)N(C)c1cc(C(=O)NC(C)c2cnccn2)cc(-c2ccc(C)cc2)c1 (configuration not stated)
CCN(C(=O)C(C)C)c1cc(C(=O)N[C@@H](C)CO)cc(-c2ccc(C)cc2)c1
CC(=O)N(c1cc(C(=O)NC(C)c2cnccn2)cc(-c2ccc(C)cc2)c1)c1ccncn1 (configuration not stated)
CC(NC(=O)c1cc(-c2ccc(Cl)cc2)cc(N(C)C(=O)N2CCOCC2)c1)c1cnccn1 (configuration not stated)
Cc1ccc(-c2cc(C(=O)NC(C)c3cnccn3)cc(N(C(=O)C(C)C)c3ccncn3)c2)cc1 (configuration not stated)
Cc1ccc(-c2cc(C(=O)N[C@@H](C)CO)cc(N(C)C(=O)C3CCCC3)c2)cc1
CCN(C(=O)C(C)C)c1cc(C(=O)NC(C)c2cnccn2)cc(-c2ccc(C)cc2)c1 (configuration not stated)
CC(C)C(=O)N(C)c1cc(C(=O)NC(C)c2cnccn2)cc(-c2ccc(F)cc2F)c1 (configuration not stated)
Cc1ccc(-c2cc(C(=O)NC(C)c3cnccn3)cc(N(C)C(=O)C3CCOCC3)c2)cc1 (configuration not stated)
Cc1ccc(-c2cc(C(=O)NCc3cnccn3)cc(N(C)C(=O)C(C)C)c2)c(F)c1
CC(=O)N(C)c1cc(C(=O)NC(C)c2cnccn2)cc(-c2ccc(C)cc2)c1 (configuration not stated)
COCC(C)NC(=O)c1cc(NC(=O)c2ccco2)cc(-c2ccc(C)cc2)c1 (configuration not stated)
CC(C)C(=O)N(C)c1cc(C(=O)NC(C)c2cnccn2)cc(-c2ccc(Cl)cn2)c1 (configuration not stated)
COCC(C)NC(=O)c1cc(NC(=O)c2ccc(C)cc2C)cc(-c2ccc(C)cc2)c1 (configuration not stated)
CCN(C(C)=O)c1cc(C(=O)NC(C)c2cnccn2)cc(-c2ccc(C)cc2)c1 (configuration not stated)
COCC(C)NC(=O)c1cc(NC(=O)c2cc(C)nn2C)cc(-c2ccc(C)cc2)c1 (configuration not stated)
COC[C@@H](C)NC(=O)c1cc(-c2ccc(Cl)cc2Cl)cc(N(C)C(=O)C(C)C)c1
CCN(C(=O)c1cccnc1)c1cc(C(=O)NC(C)c2cnccn2)cc(-c2ccc(C)cc2)c1 (configuration not stated)
CC(NC(=O)c1cc(-c2ccc(Cl)cc2)cc(N(C)C(=O)N(C)C)c1)c1cnccn1 (configuration not stated)
CCC(=O)N(c1cc(C(=O)NC(C)c2cnccn2)cc(-c2ccc(C)cc2)c1)c1ccncn1 (configuration not stated)
CCC(=O)N(C)c1cc(C(=O)NC(C)COC)cc(-c2ccc(C)cc2)c1 (configuration not stated)
Cc1ccc(-c2cc(C(=O)NCc3cnc(C)cn3)cc(N(C)C(=O)C(C)C)c2)nc1
COCC(C)NC(=O)c1cc(NC(=O)c2nc(C)oc2C)cc(-c2ccc(C)cc2)c1 (configuration not stated)
COCC(C)NC(=O)c1cc(NC(=O)c2sccc2C)cc(-c2ccc(C)cc2)c1 (configuration not stated)
COCC(C)NC(=O)c1cc(NC(=O)c2cc(C)on2)cc(-c2ccc(C)cc2)c1 (configuration not stated)
Cc1ccc(-c2cc(C(=O)NCc3cnccn3)cc(N(C)C(=O)C(C)C)c2)cc1
COC[C@@H](C)NC(=O)c1cc(-c2ccc(F)cc2F)cc(N(C)C(=O)C(C)C)c1
Cc1ccc(-c2cc(C(=O)NC(C)c3cnccn3)cc(N(C)C(=O)C3CCCC3)c2)cc1 (configuration not stated)
Cc1ccc(-c2cc(C(=O)NC(C)c3cnccn3)cc(N(C)C(=O)C(C)C)c2)cc1 (configuration not stated)
COCC(C)NC(=O)c1cc(NC(=O)c2cccs2)cc(-c2ccc(C)cc2)c1 (configuration not stated)
COCC(C)NC(=O)c1cc(NC(=O)c2ccc(F)cc2Cl)cc(-c2ccc(C)cc2)c1 (configuration not stated)
CCN(C(=O)CC(C)C)c1cc(C(=O)NC(C)c2cnccn2)cc(-c2ccc(C)cc2)c1 (configuration not stated)
COCC(C)NC(=O)c1cc(NC(=O)c2ccc(C)s2)cc(-c2ccc(C)cc2)c1 (configuration not stated)
COCC(C)NC(=O)c1cc(NC(=O)C2CCCCC2)cc(-c2ccc(C)cc2)c1 (configuration not stated)
Cc1ccc(-c2cc(C(=O)NC(C)c3cnccn3)cc(N(C)C(=O)C3CCCCC3)c2)cc1 (configuration not stated)
CC(C)C(=O)N(C)c1cc(C(=O)N[C@@H](C)CO)cc(-c2ccc(Cl)cn2)c1
CC(C)C(=O)N(C)c1cc(C(=O)NC(C)c2cnccn2)cc(-c2ccc(Cl)cc2Cl)c1 (configuration not stated)
Cc1ccc(-c2cc(C(=O)NC(C)c3cnccn3)cc(N(C)C(=O)C(C)(C)C)c2)cc1 (configuration not stated)
Cc1ccc(-c2cc(C(=O)NC(C)c3cnccn3)cc(N(C)C(=O)C(C)C)c2)nc1 (configuration not stated)
CCN(C(=O)CC(C)C)c1cc(C(=O)NC(C)CO)cc(-c2ccc(C)cc2)c1 (configuration not stated)
COCC(C)NC(=O)c1cc(NC(=O)c2cscn2)cc(-c2ccc(C)cc2)c1 (configuration not stated)
COCC(C)NC(=O)c1cc(NC(=O)c2cscc2OC)cc(-c2ccc(C)cc2)c1 (configuration not stated)
CCN(C(=O)OC(C)C)c1cc(C(=O)NC(C)c2cnccn2)cc(-c2ccc(C)cc2)c1 (configuration not stated)
COCC(C)NC(=O)c1cc(NC(=O)c2c(-c3ccccc3)noc2C)cc(-c2ccc(C)cc2)c1 (configuration not stated)
Cc1ccc(-c2cc(C(=O)NC(C)c3cnccn3)cc(N(C)C(=O)C(C)C)c2)c(Cl)c1 (configuration not stated)
COCC(C)NC(=O)c1cc(NC(=O)c2cc(C)cs2)cc(-c2ccc(C)cc2)c1 (configuration not stated)
CCC(=O)N(C)c1cc(C(=O)N[C@H](C)CN2CCOCC2)cc(-c2ccc(C)cc2)c1
Cc1ccc(-c2cc(C(=O)N[C@@H](C)CO)cc(N(C)C(=O)C(C)C)c2)nc1
CCN(C(=O)c1ccncc1)c1cc(C(=O)NC(C)COC)cc(-c2ccc(C)cc2)c1 (configuration not stated)
CCN(C(=O)OC)c1cc(C(=O)NC(C)c2cnccn2)cc(-c2ccc(C)cc2)c1 (configuration not stated)
Cc1ccc(-c2cc(NC(=O)C(C)C)cc(C(=O)NC(C)c3cnccn3)c2)cc1 (configuration not stated)
COCC(C)NC(=O)c1cc(NC(=O)c2ccccn2)cc(-c2ccc(C)cc2)c1 (configuration not stated)
CCN(C(=O)OCC(C)C)c1cc(C(=O)NC(C)c2cnccn2)cc(-c2ccc(C)cc2)c1 (configuration not stated)
CC(C)C(=O)N(C)c1cc(C(=O)NCc2cnccn2)cc(-c2ccc(Cl)cn2)c1
CCC(CC)C(=O)N(C)c1cc(C(=O)NC(C)c2cnccn2)cc(-c2ccc(C)cc2)c1 (configuration not stated)
COCC(C)NC(=O)c1cc(NC(=O)c2ccc(C(F)(F)F)cc2Cl)cc(-c2ccc(C)cc2)c1 (configuration not stated)
Cc1ccc(-c2cc(C(=O)NC(C)c3cnccn3)cc(N(C)C(=O)c3snnc3C)c2)cc1 (configuration not stated)
CCN(C(=O)C1CCOCC1)c1cc(C(=O)NC(C)c2cnccn2)cc(-c2ccc(C)cc2)c1 (configuration not stated)
CCNC(=O)N(C)c1cc(C(=O)NC(C)c2cnccn2)cc(-c2ccc(Cl)cc2)c1 (configuration not stated)
Cc1ccc(-c2cc(C(=O)N[C@@H](C)CO)cc(N(C)C(=O)C(C)C)c2)c(Cl)c1
COCC(=O)N(C)c1cc(C(=O)NC(C)c2cnccn2)cc(-c2ccc(C)cc2)c1 (configuration not stated)
CCC(C)(C)C(=O)N(C)c1cc(C(=O)NC(C)c2cnccn2)cc(-c2ccc(C)cc2)c1 (configuration not stated)
CC(=O)N1CCC(C(=O)N(C)c2cc(C(=O)NC(C)c3cnccn3)cc(-c3ccc(C)cc3)c2)CC1 (configuration not stated)
CCC(C)C(=O)N(C)c1cc(C(=O)N[C@@H](C)CO)cc(-c2ccc(C)cc2)c1 (some centres not stated)
Cc1ccc(-c2cc(C(=O)NCc3cnccn3)cc(N(C)C(=O)C(C)C)c2)c(Cl)c1
Cc1ccc(-c2cc(C(=O)N[C@@H](C)CO)cc(N(C)C(=O)C(C)C)c2)cc1
CCN(c1cc(C(=O)NC(C)c2cnccn2)cc(-c2ccc(C)cc2)c1)c1cnccn1 (configuration not stated)
Cc1ccc(-c2cc(C(=O)N[C@@H](C)CO)cc(N(C)C(=O)C(C)C)c2)c(F)c1
Cc1ccc(-c2cc(C(=O)NC(C)c3cnccn3)cc(N(C)C(=O)C(C)C)c2)c(F)c1 (configuration not stated)
Cc1ccc(-c2cc(C(=O)NCc3cnc(C)cn3)cc(N(C)C(=O)C3(C)COC3)c2)nc1
